Laboratory results: patent publication EP4582418A1, “CRYSTALLINE FORM OF QUINOLINE DERIVATIVE INHIBITOR, PREPARATION METHOD THEREFOR AND USE THEREOF” (TransThera Sciences (Nanjing), Inc., priority 2022, dated 2024)

Experiment: Solubility in FaSSIF (pH 6.5) and FeSSIF (pH 5.0) buffer solutions
Assay type: physicochemical
Procedure: Test substances: the crystal forms I, II, III, and IV of the methanesulfonate of the compound of formula (I).
• 1) 0.42 g of NaOH, 3.44 g of anhydrous NaH2PO4, and 6.19 g of NaCl were dissolved in about 0.9 L of pure water; • 2) the pH was adjusted to 6.5 using 1 N NaOH or 1 N HCl, and the buffer solution was supplemented to the volume of 1 L with pure water at room temperature; • 3) 2.24 g of FaSSIF powder was added to about 0.5 L of the buffer solution, and the mixture was stirred until the powder was completely dissolved; the resulting solution was supplemented to the volume of 1 L with the buffer solution at room temperature, and after being left to stand for 2 h, it was ready for use.
• 1) 4.04 g of NaOH, 8.65 g of glacial acetic acid, and 11.87 g of NaCl were dissolved in about 0.9 L of pure water; • 2) the pH was adjusted to 5.0 using 1 N NaOH or 1 N HCl, and the buffer solution was supplemented to the volume of 1 L with pure water at room temperature; • 3) 11.2 g of FeSSIF powder was added to about 0.5 L of the buffer solution, and the mixture was stirred until the powder was completely dissolved; the resulting solution was supplemented to the volume of 1 L with the buffer solution at room temperature, and after being left to stand for 2 h, it was ready for use.
An appropriate amount of each test substance was placed into separate 10 mL PE tubes, and FaSSIF (pH 6.5) buffer solution and FeSSIF (pH 5.0) buffer solution, each 10 mL, were added into the tubes, respectively. The tubes were then placed in a constant temperature water bath shaker and shaken at 37 °C for 24 h. After 24 h, samples were collected and centrifuged. The supernatants were diluted, and the solubility of the supernatants was measured.

24-hour solubility in buffer solutions with different pH values pH6.5 (FaSSIF (pH 6.5), 37 °C, shaken 24 h): 0.052 mg/mL
24-hour solubility in buffer solutions with different pH values pH5.0 (FeSSIF (pH 5.0), 37 °C, shaken 24 h): 0.29 mg/mL
solubility compared with the compound of formula (I) (test solutions at pH 5.0 and pH 6.5): significantly improved
Structure (SMILES): COc1cc2nccc(Oc3ccc(NC(=O)c4nn(C(C)C)cc(-c5ccc(F)cc5)c4=O)nc3)c2cc1OC [Crystal form I, N-(5-((6,7-dimethoxyquinolin-4-yl)oxy)pyridin-2-yl)-5-(4-fluorophenyl)-1-isopropyl-4-oxo-1,4-dihydropyridazine-3-carboxamide]
